Measured values published in US4447455A, “Oral urolithiasis remedy” (Madaus and Company, priority 1982, dated 1984).
“Also recorded” adds a separate entry of the source.

Key:
[1] = in vitro crystallization of calcium oxalate
[2] = acute toxicity / tolerability in the mouse; type: in vivo; conditions: alizarin, one gram per kilogram
[3] = acute toxicity / tolerability in the rat; type: in vivo; conditions: alizarin, up to 400 mg/kg
[4] = overall summary of pharmacological and toxicological tests; type: in vivo
oxalate urolithiasis = assay: therapeutic use in oxalate urolithiasis (general statements); type: in vivo, human; conditions: general statement
[5] = system: edema of the paws of rats; assay: anti-inflammatory action: edema of the paws induced by viscarin-carrageenin; type: in vivo, rat; conditions: AMDK 600 mg/kg p.o.; for Edema volume: 10 animals
Experimental: The possibility of any effect on inflammatory reactions was tested on edema of the paws of rats (groups of ten rats each) induced by viscarin-carrageenin. […] The measurement of the course of the edema was performed at 3, 5, 7 and 24 hours after the edematization. […] Where the variances between the experimental and control groups were unequal, the more rigorous t test (according to SNEDECOR) was applied for the judgment.

Compound	action on the crystallization of calcium oxalate [1]	tolerance of acute administration [2]	tolerance of acute administration [3]	tolerance in the acute toxicity test [4]	effect on the formation of stones (oxalate urolithiasis)	effectiveness in treatment of urolithiasis (oxalate urolithiasis)	tolerance (oxalate urolithiasis)	Percentage of inhibition (edema) ([5]; 3 hours after edematization)	Edema volume ([5]; 3 hours after edematization)	Percentage of inhibition (edema) ([5]; 5 hours after edematization)	Edema volume ([5]; 5 hours after edematization)	Percentage of inhibition (edema) ([5]; 7 hours after edematization)	Edema volume ([5]; 7 hours after edematization)	Percentage of inhibition (edema) ([5]; 24 hours after edematization)	Edema volume ([5]; 24 hours after edematization)
O=C1c2ccccc2C(=O)c2c1ccc(O)c2O [alizarin]	inhibiting action on the crystallization of calcium oxalate	tolerated without producing symptoms	tolerated without producing symptoms	extremely well tolerated	decided inhibitive effect on the formation of stones	decidedly effective	easily tolerated; also recorded: very well tolerated								
Sodium escinate								41.4 Percentage	46.5 mL	37.2 Percentage	50.7 mL	39.1 Percentage	46.6 mL	40.9 Percentage	14.9 mL
